Experimental data taken from patent publication US20030109523A1, “Bicyclic antagonists selective for the alphavbeta3 integrin” (Wyeth, priority 1999, published 2003).
pIC50: −log10 of the molar value. Marks after values point to notes of the source that are not given here. Values belong to the molecule of their own block, whether it stands above or below them.

Columns and labels:
[1] = test system: thyro-parathyroidectomized (TPTX) rats; experiment: PTH-induced Hypercalcemia of Thyro-parathyroidectomized Male Rats; type: in vivo, rat; settings: for Change in Serum Calcium after 3 hours / Change in Serum Calcium after 6 hours: Table V, TPTX male rats, rPTH(1-34) 0.45 μg/kg/hr, Example 37 100 mg/kg, s.c.
Source text: Effects of Test Compounds on PTH-induced Hypercalcemia of Thyro-parathyroidectomized Male Rats. Male thyro-parathyroidectomized (TPTX) rats (Charles River) were randomly assigned to groups of 7 rats/group. […] For evaluation of prophylactic effects of a test drug, another minipump with appropriate concentration of the test drug solution was implanted subcutaneously at a site away from PTH minipump or implanted as a pellet of the test compound away from the PTH minipump. Alternatively, test drugs were administered by oral gavage as a solution or uniform suspension in an appropriate medium depending on the physical properties of the test compound. A group of 7 unimplanted TPTX rats was set aside as a normal control group.

osteoclasts = experiment: Osteoclast Bone Pitting; type: cell-based, rat
Method in brief: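 Osteoclasts on bone slices at an acidic pH promoting resorption; slices fixed, osteoclasts counted after TRAP staining, cells stripped by sonication in 0.25M NH4OH and toluidine blue-stained pits counted manually. Block design, three replicate slices per treatment per animal; IC50 from dose-response curves.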

αVβ3 integrin = biological target: T1, αVβ3 integrin (Homo sapiens, UniProt P05106+P06756); experiment: Osteopontin-αVβ3 Cell Attachment Test Procedure; type: cell-based; settings: for remaining activity at 20 µM / remaining activity at 100 µM: % of maximal attachment, read-out: (αVβ3) CELL ATTACHMENT, % @ concentration
T1 construct: αVβ3-expressing cell lines are maintained by standard tissue culture techniques; endogenous in cells; host or cells: αVβ3-expressing cell lines
T1 sequence (P06756 31-889 limits assumed): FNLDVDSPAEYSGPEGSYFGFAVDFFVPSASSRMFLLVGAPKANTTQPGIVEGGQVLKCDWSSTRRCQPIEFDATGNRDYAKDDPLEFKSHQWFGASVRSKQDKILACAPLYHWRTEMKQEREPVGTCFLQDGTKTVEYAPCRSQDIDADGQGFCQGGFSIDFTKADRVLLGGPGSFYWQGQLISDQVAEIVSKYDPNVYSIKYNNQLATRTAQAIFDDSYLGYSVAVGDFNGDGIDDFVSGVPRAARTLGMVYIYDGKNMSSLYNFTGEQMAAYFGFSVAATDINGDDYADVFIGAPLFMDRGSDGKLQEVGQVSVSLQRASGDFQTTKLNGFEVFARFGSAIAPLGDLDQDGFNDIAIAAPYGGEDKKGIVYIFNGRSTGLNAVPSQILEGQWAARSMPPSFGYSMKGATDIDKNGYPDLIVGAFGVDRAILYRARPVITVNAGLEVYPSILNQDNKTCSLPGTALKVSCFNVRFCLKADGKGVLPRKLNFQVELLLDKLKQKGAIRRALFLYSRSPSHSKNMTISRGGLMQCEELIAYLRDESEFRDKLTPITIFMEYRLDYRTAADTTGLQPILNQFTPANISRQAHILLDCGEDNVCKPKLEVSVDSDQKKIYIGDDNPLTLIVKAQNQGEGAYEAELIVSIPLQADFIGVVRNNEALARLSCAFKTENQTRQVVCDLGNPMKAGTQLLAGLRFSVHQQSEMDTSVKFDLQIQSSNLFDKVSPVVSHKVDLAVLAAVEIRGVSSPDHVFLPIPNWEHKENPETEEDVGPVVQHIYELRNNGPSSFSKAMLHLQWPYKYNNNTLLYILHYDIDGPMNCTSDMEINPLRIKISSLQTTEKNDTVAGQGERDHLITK
T1 sequence (P06756 891-1048 partner limits assumed): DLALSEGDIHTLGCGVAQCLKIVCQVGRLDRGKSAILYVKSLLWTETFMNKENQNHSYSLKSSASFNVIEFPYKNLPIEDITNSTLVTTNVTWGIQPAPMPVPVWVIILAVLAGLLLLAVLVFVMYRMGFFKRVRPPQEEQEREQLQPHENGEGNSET
T1 sequence (P05106 27-788): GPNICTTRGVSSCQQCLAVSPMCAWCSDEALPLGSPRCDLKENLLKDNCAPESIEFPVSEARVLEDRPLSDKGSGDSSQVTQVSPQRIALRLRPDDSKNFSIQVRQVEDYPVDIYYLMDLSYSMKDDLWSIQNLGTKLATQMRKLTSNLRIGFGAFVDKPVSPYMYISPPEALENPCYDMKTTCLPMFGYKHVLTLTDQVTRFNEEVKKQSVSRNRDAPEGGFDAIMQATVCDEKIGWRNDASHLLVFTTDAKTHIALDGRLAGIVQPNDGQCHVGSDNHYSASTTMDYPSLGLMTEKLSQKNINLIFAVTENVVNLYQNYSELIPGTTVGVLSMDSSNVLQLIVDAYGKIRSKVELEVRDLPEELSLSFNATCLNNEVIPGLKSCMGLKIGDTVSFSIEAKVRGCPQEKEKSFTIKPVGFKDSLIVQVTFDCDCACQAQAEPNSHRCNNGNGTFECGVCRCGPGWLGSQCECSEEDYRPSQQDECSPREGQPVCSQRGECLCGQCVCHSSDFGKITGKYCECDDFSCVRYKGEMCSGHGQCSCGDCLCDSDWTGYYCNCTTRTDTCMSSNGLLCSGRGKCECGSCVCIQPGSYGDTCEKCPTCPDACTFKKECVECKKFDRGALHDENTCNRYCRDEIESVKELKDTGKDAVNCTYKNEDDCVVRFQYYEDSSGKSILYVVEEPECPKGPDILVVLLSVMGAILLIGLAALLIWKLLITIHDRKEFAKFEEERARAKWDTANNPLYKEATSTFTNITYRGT
Method in brief: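 Cells expressing αVβ3 (10^6 cells/mL) added with test compound to osteopontin-coated, 1% BSA-blocked wells in triplicate; 1.5 h at 25° C. Attached cells quantified by MTT dye conversion (overnight, 37° C.); optical density expressed as % of maximal attachment minus uncoated-well background, mean ±SD.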

αIIbβ3 integrin = biological target: T2, αIIbβ3 integrin (Homo sapiens, UniProt P05106+P08514); experiment: ADP-Induced Platelet Aggregation; type: cell-based; settings: Table VII; for pIC50: ADP 20 uM, human platelets, read-out: Platelet Aggregation αIIbβ3 IC50
T2 construct: Human Platelets: Platelet-enriched plasma was obtained commercially from a donor pool; from tissue; host or cells: human platelet-rich plasma from a commercial donor pool
T2 sequence (P08514 32-887 limits assumed): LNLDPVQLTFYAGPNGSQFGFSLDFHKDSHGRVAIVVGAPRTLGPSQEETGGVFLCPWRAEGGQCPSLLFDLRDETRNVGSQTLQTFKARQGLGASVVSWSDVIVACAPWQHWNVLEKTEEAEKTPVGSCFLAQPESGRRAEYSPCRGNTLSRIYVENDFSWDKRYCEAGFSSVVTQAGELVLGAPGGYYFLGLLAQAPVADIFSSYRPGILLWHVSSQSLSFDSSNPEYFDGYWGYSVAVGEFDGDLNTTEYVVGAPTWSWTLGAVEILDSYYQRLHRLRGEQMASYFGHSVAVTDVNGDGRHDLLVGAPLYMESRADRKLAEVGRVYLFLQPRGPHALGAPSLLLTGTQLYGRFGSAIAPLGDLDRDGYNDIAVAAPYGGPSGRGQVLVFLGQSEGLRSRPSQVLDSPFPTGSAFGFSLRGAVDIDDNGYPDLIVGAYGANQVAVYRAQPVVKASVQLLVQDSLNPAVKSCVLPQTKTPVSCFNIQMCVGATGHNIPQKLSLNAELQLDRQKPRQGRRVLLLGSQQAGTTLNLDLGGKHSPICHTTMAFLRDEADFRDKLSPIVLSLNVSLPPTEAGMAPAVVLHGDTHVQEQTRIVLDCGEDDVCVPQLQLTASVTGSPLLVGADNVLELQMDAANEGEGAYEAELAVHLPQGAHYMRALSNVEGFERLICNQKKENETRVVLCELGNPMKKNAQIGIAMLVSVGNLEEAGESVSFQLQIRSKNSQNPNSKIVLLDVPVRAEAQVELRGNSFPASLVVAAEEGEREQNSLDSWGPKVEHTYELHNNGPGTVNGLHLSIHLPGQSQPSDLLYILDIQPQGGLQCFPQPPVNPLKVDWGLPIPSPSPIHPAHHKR
T2 sequence (P08514 891-1039 partner limits assumed): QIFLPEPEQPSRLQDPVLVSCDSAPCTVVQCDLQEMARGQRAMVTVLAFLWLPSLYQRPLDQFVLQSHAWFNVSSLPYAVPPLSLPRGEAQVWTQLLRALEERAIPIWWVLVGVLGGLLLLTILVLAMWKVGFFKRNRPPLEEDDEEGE
T2 sequence (P05106 27-788): as the sequence (P05106 27-788) above
Method in brief: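 Pooled human PRP ([…]) preincubated with compound (1% vehicle) 5 min at 37° C with stirring, then stimulated with 20 uM ADP. Light transmittance followed 5 min against PPP reference; maximal aggregation expressed as % of vehicle control, mean ± SD.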

[2] = biological target: T3, Vitronectin Receptor (αVβ3) (Homo sapiens, UniProt P05106+P06756); experiment: Vitronectin Receptor (αVβ3) Binding Test Procedure; settings: for remaining activity at 30 µM: % Max = percentage of the specific binding, read-out: (αVβ3) RECEPTOR BINDING, % @ concentration
T3 construct: expressed in transfected cells; host or cells: 512P5 cells (plasma membrane preparation)
T3 sequence (P06756 31-889 limits assumed): as the sequence (P06756 31-889 limits assumed) above
T3 sequence (P06756 891-1048 partner limits assumed): as the sequence (P06756 891-1048 partner limits assumed) above
T3 sequence (P05106 27-788): as the sequence (P05106 27-788) above

[3] = @200 μM, percent of maximal aggregation

Molecule: N=C(N)NCCCOc1ccc2c(c1)CCC(CC(=O)O)C2.O=C(O)C(F)(F)F (centres unmarked) [Example 37, [6-(3-Guanidino-propoxy)-1,2,3,4-tetrahydro-napthalen-2-yl]-acetic Acid Trifluoroacetate]
Change in Serum Calcium after 3 hours ([1]; 1st column pair): 1.72 mg/dL
Change in Serum Calcium after 6 hours ([1]; 1st column pair): 2.22 mg/dL
Change in Serum Calcium after 3 hours ([1]; 2nd column pair): 0.97 mg/dL
Change in Serum Calcium after 6 hours ([1]; 2nd column pair): 2.21 mg/dL
Change in Serum Calcium after 3 hours ([1]; 3rd column pair): 0.95 mg/dL
Change in Serum Calcium after 6 hours ([1]; 3rd column pair): 1.80 mg/dL
Change in Serum Calcium after 3 hours ([1]; 4th column pair): 1.31 mg/dL
Change in Serum Calcium after 6 hours ([1]; 4th column pair): 1.63 mg/dL
BONE PITTING INHIBITION (osteoclasts; @ 238 μM): 30% @ 238
pIC50 (αVβ3 integrin; attachment of cells to osteopontin, read-out: (αVβ3) IC50 CELL ATTACHMENT): 5.05
pIC50 (αIIbβ3 integrin): 4.08
pIC50 ([2]; read-out: (αVβ3) IC50 RECEPTOR BINDING): 5.54

Molecule: N=C(N)NCCCCOc1ccc2c(c1)CC(CCC(=O)O)C(=O)N2 (centres unmarked) [Example 224, 3-[6-(4-Guanidino-butoxy)-2-oxo-1,2,3,4-tetrahydro-quinolin-3-yl]-propionic Acid]
inhibition at 216 µM (osteoclasts; Rattus norvegicus, Osteoclast): -62%
remaining activity at 20 µM (αVβ3 integrin): 100%
pIC50 (αIIbβ3 integrin): 4.28
melting point: 152 to 155 °C
remaining activity at 30 µM [2]: 100%

Molecule: N=C(N)NCCCCOc1ccc2c(c1)NC(=O)C(CCC(=O)O)C2 (centres unmarked) [Example 232, 3-[7-(4-Guanidino-butoxy)-2-oxo-1,2,3,4-tetrahydro-quinolin-3-yl]-propionic Acid]
inhibition at 216 µM (osteoclasts; Rattus norvegicus, Osteoclast): -70%
remaining activity at 100 µM (αVβ3 integrin): 97%
pIC50 (αIIbβ3 integrin): 3.81
melting point: 176 to 177 °C
remaining activity at 30 µM [2]: 75.3%

remaining activity at 100 µM (αVβ3 integrin): 85%
remaining activity at 200 µM (αIIbβ3 integrin; [3]): 74.3%
melting point: 151 to 155 °C
remaining activity at 30 µM [2]: 100%
Molecule: N=C(N)NCCCOc1cccc2c1NC(=O)C(CC(=O)O)C2 (centres unmarked) [Example 234, [8-(3-Guanidino-propoxy)-2-oxo-1,2,3,4-tetrahydro-quinolin-3-yl]-acetic Acid]
inhibition at 230 µM (osteoclasts; Rattus norvegicus, Osteoclast, @ 230 μM): 8%

Molecule: N=C(N)NCCCCOc1cccc2c1NC(=O)C(CC(=O)O)C2 (centres unmarked) [Example 235, [8-(4-Guanidino-butoxy)-2-oxo-1,2,3,4-tetrahydro-quinolin-3-yl]-acetic Acid]
inhibition at 221 µM (osteoclasts; Rattus norvegicus, Osteoclast, @ 221 μM): -50%
remaining activity at 100 µM (αVβ3 integrin): 91%
remaining activity at 200 µM (αIIbβ3 integrin; [3]): 81.1%
melting point: 207 to 210 °C
remaining activity at 30 µM [2]: 100%

Molecule: N=C(N)NCCCOc1ccc2cc(CC(=O)O)c(=O)n(Cc3ccccc3)c2c1.O=C(O)C(F)(F)F [Example 239, [1-Benzyl-7-(3-guanidino-propoxy)-2-oxo-1,2-dihydro-quinolin-3-yl]-acetic Acid Trifluoroacetic Acid Salt]
inhibition at 19.1 µM (osteoclasts; Rattus norvegicus, Osteoclast, @ 19.1 μM): 33%
remaining activity at 20 µM (αVβ3 integrin): 99.7%
remaining activity at 100 µM (αVβ3 integrin): 67.5%
Percent of Maximal (αIIbβ3 integrin; [3]): 83.7@200%
melting point: 132 to 134 °C
remaining activity at 30 µM [2]: 70%

Molecule: Cyclo(-Arg-Gly-Asp-D-Phe-Val)
Change in Serum Calcium (mg/dL) ([1]; Table III, TPTX rat, 100 mg/kg.sc): −0.90 + 0.28 mg/dL
Change in Serum Calcium after 3 hours ([1]; 1st column pair): 0.69 mg/dL
Change in Serum Calcium after 6 hours ([1]; 1st column pair): 1.20* mg/dl
Change in Serum Calcium after 3 hours ([1]; 2nd column pair): 0.58** mg/dl
Change in Serum Calcium after 6 hours ([1]; 2nd column pair): 1.44* mg/dl
Change in Serum Calcium after 3 hours ([1]; 3rd column pair): 0.01** mg/dl
Change in Serum Calcium after 6 hours ([1]; 3rd column pair): 0.63 mg/dL
Change in Serum Calcium after 3 hours ([1]; 4th column pair): 0.51** mg/dl
Change in Serum Calcium after 6 hours ([1]; 4th column pair): 1.07 mg/dL
